Experimental data as given in patent publication US8828995B2, “Branched oxathiazine derivatives, method for the production thereof, use thereof as medicine and drug containing said derivatives and use thereof” (Sanofi, priority 2011, dated 2014).

Target: human 11β-HSD1 microsome fraction (Homo sapiens, UniProt P28845)
Assay: Enzymatic 11beta-HSD1 test (SPA-based detection)
Conditions: IC50 (nM), Biological activity, [1,2-3H]-cortisone, 0.25 mM NADPH, 37° C. for 1 hour
Procedure: Enzymatic 11beta-HSD1 test:
Protein and radioactive substrate were dispensed with a Biomek FX unit (Beckman Coulter) for handling liquids. The test compounds were added with a Cybi-Well equipped with a 90 nl pin tool (CyBio).

human 11β-HSD1 microsome fraction, sequence (P28845 whole entry): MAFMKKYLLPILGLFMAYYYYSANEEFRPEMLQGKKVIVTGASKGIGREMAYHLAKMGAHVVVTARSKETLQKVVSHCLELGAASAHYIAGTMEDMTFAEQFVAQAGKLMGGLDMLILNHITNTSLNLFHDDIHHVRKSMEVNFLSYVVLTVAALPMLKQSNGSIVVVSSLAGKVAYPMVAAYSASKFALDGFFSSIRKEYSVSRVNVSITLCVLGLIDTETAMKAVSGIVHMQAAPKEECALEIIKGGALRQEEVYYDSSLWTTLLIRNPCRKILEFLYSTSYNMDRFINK

In order of falling IC50:
1. O=S1(=O)N=C(N[C@@H](CCO)c2ccccc2)OC2CCOCC21 (single isomer, unassigned) [Example 26]  742 nM
2. O=S1(=O)N=C(N[C@@H](CO)Cc2ccccc2)OC2CCCCC21 (stereo partly drawn) [Example 2, (R)-2-(−1,1-Dioxo-4a,5,6,7,8,8a-hexahydro-1H-1lambda6-benzo[1,4,3]oxathiazin-3-ylamino)-3-phenyl-propan-1-ol]  575 nM
3. O=S1(=O)N=C(N[C@@H](CCO)c2ccccc2)OC2CCC(F)(F)CC21 (stereo partly drawn) [Example 28, (S)-3-(7,7-Difluoro-1,1-dioxo-4a,5,6,7,8,8a-hexahydro-1H-1lambda6-benzo[1,4,3]oxathiazin-3-ylamino)-3-phenyl-propan-1-ol]  445 nM
4. CC12CCCCC1(C)S(=O)(=O)N=C(N[C@@H](CCO)c1cccnc1)O2 (single isomer, unassigned) [Example 34]  353 nM
5. O=S1(=O)N=C(N[C@@H](CCO)c2cccc(F)c2)OC2CCCCC21 (stereo partly drawn) [Example 10, (S)-3-(−1,1-Dioxo-4a,5,6,7,8,8a-hexahydro-1H-1lambda6-benzo[1,4,3]oxathiazin-3-ylamino)-3-(3-fluoro-phenyl)-propan-1-ol]  104 nM
6. O=S1(=O)N=C(N[C@@H](CCO)c2ccccc2)OC2CCOCC21 (single isomer, unassigned) [Example 27]  62 nM
7. CC12CCCCC1(C)S(=O)(=O)N=C(N[C@@H](CCO)c1ccccc1)O2 (single isomer, unassigned) [Example 31]  34 nM
8. O=S1(=O)N=C(N[C@@H](CCO)c2cccc(F)c2)OC2CCCCC21 (stereo partly drawn) [Example 17, (S)-3-(−1,1-Dioxo-4a,5,6,7,8,8a-hexahydro-1H-1lambda6-benzo[1,4,3]oxathiazin-3-ylamino)-3-(3-fluoro-phenyl)-propan-1-ol]  27 nM
9. O=S1(=O)N=C(N[C@@H](CCO)c2cccnc2)O[C@H]2CCCC[C@H]21 [Example 25, (S)-3-((4aS,8aR)-1,1-Dioxo-4a,5,6,7,8,8a-hexahydro-1H-1lambda6-benzo[1,4,3]oxathiazin-3-ylamino)-3-pyridin-3-yl-propan-1-ol]  25 nM
10. O=S1(=O)N=C(N[C@H](CO)Cc2ccccc2)OC2CCCCC21 (stereo partly drawn) [Example 3, (S)-2-(−1,1-Dioxo-4a,5,6,7,8,8a-hexahydro-1H-1lambda6-benzo[1,4,3]oxathiazin-3-ylamino)-3-phenyl-propan-1-ol]  24 nM
11. NS(=O)(=O)CC(NC1=NS(=O)(=O)[C@@H]2CCCC[C@@H]2O1)c1ccccc1 (stereo partly drawn) [Example 29, 2-((4aS,8aR)-1,1-Dioxo-4a,5,6,7,8,8a-hexahydro-1H-1lambda6-benzo[1,4,3]oxathiazin-3-ylamino)-2-phenyl-ethanesulfonamide]  15 nM
12. O=S1(=O)N=C(N[C@@H](CCO)c2ccc(F)cc2)OC2CCCCC21 (single isomer, unassigned) [Example 20]  13 nM
13. O=S1(=O)N=C(N[C@@H](CCO)c2ccc(F)cc2)OC2CCCCC21 (single isomer, unassigned) [Example 19]  11 nM
14. NS(=O)(=O)CC(NC1=NS(=O)(=O)[C@@H]2CCCC[C@@H]2O1)c1ccccc1 (stereo partly drawn) [Example 30, 2-((4aS,8aR)-1,1-Dioxo-4a,5,6,7,8,8a-hexahydro-1H-1lambda6-benzo[1,4,3]oxathiazin-3-ylamino)-2-phenyl-ethanesulfonamide]  11 nM
15. CC12CCCCC1(C)S(=O)(=O)N=C(N[C@@H](CCO)c1cccnc1)O2 (single isomer, unassigned) [Example 33]  9 nM
16. O=S1(=O)N=C(N[C@@H](CCO)c2ccc(F)cc2)OC2CCCCC21 (stereo partly drawn) [Example 9, (S)-3-(−1,1-Dioxo-4a,5,6,7,8,8a-hexahydro-1H-1lambda6-benzo[1,4,3]oxathiazin-3-ylamino)-3-(4-fluoro-phenyl)-propan-1-ol]  5 nM
17. CC12CCCCC1(C)S(=O)(=O)N=C(N[C@@H](CCO)c1ccccc1)O2 (single isomer, unassigned) [Example 32]  4 nM
18. O=S1(=O)N=C(N[C@@H](CCO)c2ccc(F)cc2)OC2CCCCC21 (stereo partly drawn) [Example 18, (S)-3-(−1,1-Dioxo-4a,5,6,7,8,8a-hexahydro-1H-1lambda6-benzo[1,4,3]oxathiazin-3-ylamino)-3-(4-fluoro-phenyl)-propan-1-ol]  4 nM
